Data published in patent US10221163B2 (priority 2015, dated 2019).
pIC50: −log10 of the molar value. Like-named read-outs stand apart in the source and are kept apart here.

Key:
[1] = system: Pseudomonas aeruginosa MB9798 vs MB9799; details: ratio MITC95 PA_9798/MITC95 PA_9799
In short: (§1)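 Microbroth MIC tests in PAO1-background strains with fixed imipenem and/or ceftazidime, usually at the CLSI breakpoint, plus fixed class A/C β-lactamase inhibitor against AmpC. MBL inhibitor titrated; concentration restoring susceptibility recorded and compared as fold difference between efflux+ MB9798 and efflux− MB9799.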

[2] = system: Pseudomonas aeruginosa efflux− (MB9799), IMP-1; format: cell-based; details: concentration restoring susceptibility to imipenem at 2 μg/mL in the presence of a class A, C, D serine β-lactamase inhibitor closely related to relebactam
In short: as §1

[3] = system: Escherichia coli expressing NDM-1 (CLB30005, CLB30016); format: cell-based; details: NDM-1 strain, with imipenem 1 μg/ml, 95% inhibition of growth
In short: (§2)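 Clinical strains grown overnight on blood agar at 35°C, colonies suspended in saline, diluted 1:100 into 1.1×CAMHB. Test compound titrated with imipenem at 1 μg/ml; incubated 22–24 h at 35°C, growth read by absorbance.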

[4] = system: Serratia marcescens expressing IMP-1 (CL5741); format: cell-based; details: IMP-1 strain CL5741, with imipenem 1 μg/ml, 95% inhibition of growth
In short: as §2

[5] = system: Klebsiella pneumoniae expressing VIM-1 (IHMA599644); format: cell-based; details: VIM-1 strain IHMA599644, with imipenem 1 μg/ml, 95% inhibition of growth
In short: as §2

VIM-1 = VIM-1 (Pseudomonas aeruginosa (strain ATCC 15692 / DSM 22644 / CIP 104116 / JCM 14847 / LMG 12228 / 1C / PRS 101 / PAO1), UniProt A0A0F7KYQ8); assay: biochemical; details: CCF2-FA substrate, 30 pM enzyme, 2 hours at 25° C.
In short: (§3)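 Enzyme activity was measured by fluorescence using CCF2-FA, a cephalosporin-linked 7-hydroxycoumarin/fluorescein substrate, with inhibitor, metallo-β-lactamase and substrate incubated together for 2 hours at 25° C. IC50 came from a 4-parameter fit of inhibition versus log inhibitor concentration.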

NDM-1 = NDM-1 (Klebsiella pneumoniae, UniProt C7C422); assay: biochemical; format: biochemical; details: fluorescence assay, CCF2-FA substrate, 1 pM enzyme, 2 hours at 25° C.; read-out: NDM-1 IC50
In short: as §3

IMP-1 = IMP-1 (Serratia marcescens, UniProt P52699); assay: biochemical; format: biochemical; details: fluorescence assay, CCF2-FA substrate, 2 pM enzyme, 2 hours at 25° C.; read-out: IMP-1 IC50
In short: as §3

[6] = system: Pseudomonas aeruginosa efflux+ (MB9798), IMP-1; format: cell-based; details: concentration restoring susceptibility to imipenem at 2 μg/mL in the presence of a class A, C, D serine β-lactamase inhibitor closely related to relebactam
In short: as §1

[7] = fluorescence assay, read-out: VIM-1 IC50

Sequence of IMP-1 (P52699 whole entry, looked up, species assumed): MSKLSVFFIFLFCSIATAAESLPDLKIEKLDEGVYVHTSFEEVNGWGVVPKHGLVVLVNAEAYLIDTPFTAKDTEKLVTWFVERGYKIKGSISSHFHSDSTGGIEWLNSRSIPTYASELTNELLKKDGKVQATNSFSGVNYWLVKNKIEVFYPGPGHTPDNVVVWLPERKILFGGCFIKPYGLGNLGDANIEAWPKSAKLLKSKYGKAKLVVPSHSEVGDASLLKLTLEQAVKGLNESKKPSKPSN
Sequence of NDM-1 (C7C422 whole entry, looked up, species assumed): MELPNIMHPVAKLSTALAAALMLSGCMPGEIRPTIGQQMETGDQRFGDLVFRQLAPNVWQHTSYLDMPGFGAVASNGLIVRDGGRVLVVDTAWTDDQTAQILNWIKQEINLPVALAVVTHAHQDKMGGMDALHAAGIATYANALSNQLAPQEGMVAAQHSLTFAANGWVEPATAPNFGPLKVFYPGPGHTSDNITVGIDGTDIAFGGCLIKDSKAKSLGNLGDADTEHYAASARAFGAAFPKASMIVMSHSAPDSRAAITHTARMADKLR

| Compound | Efflux ratio [1] | P. aeruginosa expressing IMP-1, efflux − (MB9799) MITC95 [2] [µM] | Escherichia coli MITC95 [3] [µM] | Serratia marcescens MITC95 [4] [µM] | Klebsiella pneumoniae MITC95 [5] [µM] | pIC50 (VIM-1; [7]) | pIC50 (NDM-1) | pIC50 (IMP-1) | P. aeruginosa expressing IMP-1, efflux + (MB9798) MITC95 [6] [µM] | pIC50 (VIM-1; VIM-1 IC50, fluorescence assay) |
| --- | --- | --- | --- | --- | --- | --- | --- | --- | --- | --- |
| CNc1nc2c(-c3ccc(S(=O)(=O)N[C@@H]4CCNC4)c(S(N)(=O)=O)c3-c3nn[nH]n3)cccc2[nH]1 [Example 280, (R)-4-(2-(methylamino)-1H-benzo[d]imidazol-4-yl)-N1-(pyrrolidin-3-yl)-3-(2H-tetrazol-5-yl)benzene-1,2-disulfonamide] | 0.50 | 0.7813 | 0.7813 | 0.7813 | 1.563 | 9.80 | 10.39 | 9.21 | 0.3906 | – |
| Cn1nc2cccc(-c3ccc(S(=O)(=O)N[C@@H]4CCNC4)c(S(N)(=O)=O)c3-c3nn[nH]n3)c2n1 [Example 281, (R)-4-(2-methyl-2H-benzo[d][1,2,3]triazol-4-yl)-N1-(pyrrolidin-3-yl)-3-(2H-tetrazol-5-yl)benzene-1,2-disulfonamide] | 2.00 | 1.563 | 1.563 | 1.563 | 3.125 | 10.29 | 10.78 | 9.12 | 3.125 | – |
| NS(=O)(=O)c1c(S(=O)(=O)N[C@@H]2CCNC2)ccc(-c2cnc3cc[nH]c3c2)c1-c1nn[nH]n1 [Example 282, (R)-N1-(pyrrolidin-3-yl)-4-(1H-pyrrolo[3,2-b]pyridin-6-yl)-3-(2H-tetrazol-5-yl)benzene-1,2-disulfonamide] | 1.00 | 0.7813 | 0.7813 | 0.7813 | 1.563 | – | 10.35 | 8.95 | 0.7813 | 9.88 |
| NCc1nc2c(-c3ccc(S(=O)(=O)N[C@@H]4CCNC4)c(S(N)(=O)=O)c3-c3nn[nH]n3)cccc2[nH]1 [Example 283, (R)-4-(2-(aminomethyl)-1H-benzo[d]imidazol-4-yl)-N1-(pyrrolidin-3-yl)-3-(2H-tetrazol-5-yl)benzene-1,2-disulfonamide] | 1.00 | 0.7813 | 0.7813 | 0.6836 | 1.172 | 9.91 | 10.14 | 8.92 | 0.7813 | – |
| Cc1ccc(-c2ccc(S(=O)(=O)N[C@@H]3CCNC3)c(S(N)(=O)=O)c2-c2nn[nH]n2)c2nc(N)[nH]c12 [Example 285, (R)-4-(2-amino-7-methyl-1H-benzo[d]imidazol-4-yl)-N1-(pyrrolidin-3-yl)-3-(2H-tetrazol-5-yl)benzene-1,2-disulfonamide] | 1.00 | 0.3906 | 0.7813 | 0.7813 | 0.7813 | – | 10.53 | 9.50 | 0.3906 | 10.04 |
| Nc1ccc2cccc(-c3ccc(S(=O)(=O)N[C@@H]4CCNC4)c(S(N)(=O)=O)c3-c3nn[nH]n3)c2n1 [Example 286, (R)-4-(2-aminoquinolin-8-yl)-N1-(pyrrolidin-3-yl)-3-(2H-tetrazol-5-yl)benzene-1,2-disulfonamide] | 1.25 | 0.7813 | 1.953 | 0.7813 | 1.172 | 10.06 | 10.68 | 9.91 | 0.9766 | – |
| NS(=O)(=O)c1c(S(=O)(=O)N[C@@H]2CCNC2)ccc(-c2cccc3ncccc23)c1-c1nn[nH]n1 [Example 287, (R)-N1-(pyrrolidin-3-yl)-4-(quinolin-5-yl)-3-(2H-tetrazol-5-yl)benzene-1,2-disulfonamide] | 1.00 | 1.563 | 1.563 | 1.563 | 3.125 | 9.78 | 10.37 | 9.21 | 1.563 | – |
| Nc1cc(-c2ccc(S(=O)(=O)N[C@@H]3CCNC3)c(S(N)(=O)=O)c2-c2nn[nH]n2)ccn1 [Example 288, (R)-4-(2-aminopyridin-4-yl)-N1-(pyrrolidin-3-yl)-3-(2H-tetrazol-5-yl)benzene-1,2-disulfonamide] | 2.00 | 0.7813 | 0.7813 | 1.563 | 1.563 | 10.11 | 10.01 | 9.34 | 1.563 | – |
| NCCn1nnc2c(-c3ccc(S(=O)(=O)N[C@@H]4CCNC4)c(S(N)(=O)=O)c3-c3nn[nH]n3)cccc21 [Example 289] | 2.00 | 0.7813 | 0.7813 | 1.563 | 1.563 | 9.98 | 9.60 | 8.91 | 1.563 | – |
| NCc1csc(Nc2cccc(-c3ccc(S(=O)(=O)N[C@@H]4CCNC4)c(S(N)(=O)=O)c3-c3nn[nH]n3)c2)n1 [Example 290, (R)-3′-((4-(aminomethyl)thiazol-2-yl)amino)-N4-(pyrrolidin-3-yl)-2-(2H-tetrazol-5-yl)-[1,1′-biphenyl]-3,4-disulfonamide] | 2.00 | 0.3906 | 0.1953 | 0.7813 | 0.7813 | – | 10.06 | 9.35 | 0.7813 | 9.98 |
| NS(=O)(=O)c1c(S(=O)(=O)N[C@@H]2CCNC2)ccc(-c2cccn3ccnc23)c1-c1nn[nH]n1 [Example 291, (R)-4-(imidazo[1,2-a]pyridin-8-yl)-N1-(pyrrolidin-3-yl)-3-(2H-tetrazol-5-yl)benzene-1,2-disulfonamide] | 1.00 | 0.7813 | 0.7813 | 1.563 | 3.125 | – | 10.30 | 9.77 | 0.7813 | 10.16 |
| NC(=O)c1nc2c(-c3ccc(S(=O)(=O)N[C@H]4CCNC4)c(S(N)(=O)=O)c3-c3nn[nH]n3)cccc2[nH]1 [Example 292, (S)-4-(4-(N-(pyrrolidin-3-yl)sulfamoyl)-3-sulfamoyl-2-(2H-tetrazol-5-yl)phenyl)-1H-benzo[d]imidazole-2-carboxamide] | 0.50 | 1.563 | 1.563 | 3.125 | 3.125 | 9.83 | 10.34 | 9.17 | 0.7813 | – |
| Nc1nc(-c2cccc(-c3ccc(S(=O)(=O)N[C@H]4CCNC4)c(S(N)(=O)=O)c3-c3nn[nH]n3)c2)c[nH]1 [Example 294, (S)-3′-(2-amino-1H-imidazol-4-yl)-N4-(pyrrolidin-3-yl)-2-(2H-tetrazol-5-yl)-[1,1′-biphenyl]-3,4-disulfonamide] | 2.00 | 0.7813 | 0.3906 | 0.7813 | 1.563 | – | 9.71 | 8.76 | 1.563 | 9.13 |
